Test results reported in paper PMC12082625, “Redox-State-Dependent Structural Changes within a Prokaryotic 6–4 Photolyase” (Journal of the American Chemical Society, 2025).
Values belong to the compound of their own block, whether it stands above or below them.

What was measured:
Type in all cases: binding
[1] = target: T1, Cc(6–4)PL (Caulobacter vibrioides, UniProt Q9AAF5); experiment: XFEL serial femtosecond crystallography; settings: dark-adapted oxidized state, room temperature; N-terminal antenna site; co-purified cofactor
T1 construct: gene CC_0646; pET28-based, nickel-NTA purified (His-tagged by implication) from E. coli BL21(DE3); model spans M1-S508; contains FAD, DLZ and [4Fe-4S] cluster
T1 sequence (Q9AAF5 1-509): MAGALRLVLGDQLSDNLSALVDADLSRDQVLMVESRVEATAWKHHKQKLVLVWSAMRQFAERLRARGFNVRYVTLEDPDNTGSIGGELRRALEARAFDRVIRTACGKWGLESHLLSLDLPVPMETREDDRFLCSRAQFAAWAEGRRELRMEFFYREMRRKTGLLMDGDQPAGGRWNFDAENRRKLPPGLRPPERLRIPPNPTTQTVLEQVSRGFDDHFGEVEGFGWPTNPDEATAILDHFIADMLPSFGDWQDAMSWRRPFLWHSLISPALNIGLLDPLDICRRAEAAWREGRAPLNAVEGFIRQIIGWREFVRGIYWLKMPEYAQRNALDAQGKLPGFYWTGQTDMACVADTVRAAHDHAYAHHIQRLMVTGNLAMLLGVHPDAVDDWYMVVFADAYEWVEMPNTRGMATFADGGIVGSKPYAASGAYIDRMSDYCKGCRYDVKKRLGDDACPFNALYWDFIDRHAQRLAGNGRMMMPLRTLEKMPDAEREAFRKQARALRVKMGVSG

[2] = target: T2, Cc(6–4)PL (Caulobacter vibrioides, UniProt Q9AAF5, K48A); experiment: X-ray crystal structure (synchrotron, […] Å); UV/vis spectroscopy; settings: antenna site; occupancy in crystal, not an affinity
T2 construct: gene CC_0646; pET28-based, nickel-NTA purified (His-tagged by implication) from E. coli BL21(DE3); model spans M1-S508; contains FAD, DLZ and [4Fe-4S] cluster
T2 sequence (Q9AAF5 entry or part of it K48A): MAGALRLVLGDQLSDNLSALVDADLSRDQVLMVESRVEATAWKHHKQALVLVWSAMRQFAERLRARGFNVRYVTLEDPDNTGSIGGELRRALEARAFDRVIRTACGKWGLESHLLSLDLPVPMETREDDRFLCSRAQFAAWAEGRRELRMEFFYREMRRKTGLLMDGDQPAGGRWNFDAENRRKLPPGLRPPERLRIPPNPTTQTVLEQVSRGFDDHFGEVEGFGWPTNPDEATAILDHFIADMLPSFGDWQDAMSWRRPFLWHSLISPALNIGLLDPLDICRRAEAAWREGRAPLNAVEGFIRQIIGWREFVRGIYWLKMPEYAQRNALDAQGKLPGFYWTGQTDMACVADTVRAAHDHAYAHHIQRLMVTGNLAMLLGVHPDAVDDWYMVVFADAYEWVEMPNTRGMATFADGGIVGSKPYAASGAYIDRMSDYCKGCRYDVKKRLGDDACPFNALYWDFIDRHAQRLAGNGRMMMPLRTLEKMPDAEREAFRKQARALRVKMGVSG

[3] = target: T1, Cc(6–4)PL; experiment: XFEL serial femtosecond crystallography; in crystallo UV-vis; settings: photoreduced in crystals, 50 mM DTT, anaerobic, 30 min white light and blue LED; catalytic FAD site
[4] = target: T1, Cc(6–4)PL; experiment: XFEL serial femtosecond crystallography and synchrotron crystal structures; settings: dark-adapted oxidized state, room temperature; catalytic FAD site; co-purified cofactor

occupancy [2]: ~ 50%
Structure (SMILES): Cc1nc2c(=O)[nH]c(=O)nc-2n(C[C@H](O)[C@H](O)[C@H](O)CO)c1C [DLZ]
XFEL serial femtosecond crystallography [1]: Structural analysis reveals an intricate DLZ binding pocket with interactions involving several key residues

Structure (SMILES): Cc1cc2c(cc1C)N(C[C@H](O)[C@H](O)[C@H](O)COP(=O)(O)OP(=O)(O)OC[C@H]1O[C@@H](n3cnc4c(N)ncnc43)[C@H](O)[C@@H]1O)c1[nH]c(=O)[nH]c(=O)c1N2 [FADH–]
XFEL serial femtosecond crystallography; in crystallo UV-vis [3]: structural changes occurred in the FAD binding site compared to the FADox state

Structure (SMILES): Cc1cc2nc3c(=O)[nH]c(=O)nc-3n(C[C@H](O)[C@H](O)[C@H](O)COP(=O)(O)OP(=O)(O)OC[C@H]3O[C@@H](n4cnc5c(N)ncnc54)[C@H](O)[C@@H]3O)c2cc1C [FADox]
XFEL serial femtosecond crystallography and synchrotron crystal structures [4]: the damage-free structures reveal FAD’s binding arrangement with its isoalloxazine moiety engaging key amino acid residues
